In US11976083B2, “Inhibitors of peptidylarginine deiminases” (Gilead Sciences, Inc., priority 2020, dated 2024) one finds IC50 data, which are given here for 17 compounds.

For this assay, the target named is T1, human PAD4 (Homo sapiens, UniProt Q9UM07).
T1 construct: human PAD4 (NM_012387), A2-P663, was PCR amplified; His-SUMO (N, cleaved yes); made in house; host or cells: E. coli BL21(DE3)
T1 sequence (Q9UM07 2-663): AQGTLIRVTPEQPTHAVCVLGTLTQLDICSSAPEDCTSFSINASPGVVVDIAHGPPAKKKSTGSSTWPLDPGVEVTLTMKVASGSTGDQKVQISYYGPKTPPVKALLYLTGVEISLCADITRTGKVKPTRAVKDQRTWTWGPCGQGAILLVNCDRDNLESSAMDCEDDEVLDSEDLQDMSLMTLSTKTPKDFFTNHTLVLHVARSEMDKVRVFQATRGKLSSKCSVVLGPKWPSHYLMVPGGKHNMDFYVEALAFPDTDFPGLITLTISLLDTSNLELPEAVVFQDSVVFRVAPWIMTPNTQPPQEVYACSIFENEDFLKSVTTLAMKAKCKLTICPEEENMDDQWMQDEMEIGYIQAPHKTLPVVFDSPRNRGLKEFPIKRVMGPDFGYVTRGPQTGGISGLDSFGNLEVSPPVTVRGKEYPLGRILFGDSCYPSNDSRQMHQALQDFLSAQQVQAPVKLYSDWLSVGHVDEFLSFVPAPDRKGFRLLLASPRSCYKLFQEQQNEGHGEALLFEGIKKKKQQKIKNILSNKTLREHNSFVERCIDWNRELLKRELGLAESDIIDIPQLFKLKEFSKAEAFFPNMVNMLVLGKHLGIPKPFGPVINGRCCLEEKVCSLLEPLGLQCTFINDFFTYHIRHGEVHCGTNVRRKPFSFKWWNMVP
Put plainly: In vitro PAD4 BAEE biochemical assay. The settings on record: BAEE substrate 3 mM, 5 nM PAD4, 2 mM calcium chloride; geometric mean of multiple experiments. The method, boiled down: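 Assay was run at 25 °C using 3 mM BAEE and 5 nM human PAD4 after a 30 min compound preincubation; ammonia produced over 2 h was quantified by OPA-derived fluorescence. Full inhibition was defined by 50 µM BB-Cl-Amidine, and IC50 came from variable-slope nonlinear regression.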
One may read the IC50 as the concentration at which inhibition is half-maximal. Regarding `COc1cc(C(=O)N[C@@H]2CNC[C@H]3C[C@H]32)cc2nc(-c3cc4ccc5nc4n3CCCCCCC(C)(C)C(=O)N[C@@H]5C)n(C)c12` [Example 201, ~{N}-[(1~{S),5~{S},6~{R})-3-azabicyclo[4.1.0]heptan-5-yl]-7-methoxy-1-methyl-2-[(11~{R})-8,8,11-trimethyl-9-oxo-1,10,19-triazatricyclo[10.5.2.0^{15,18}]nonadeca-12(19),13,15(18),16-tetraen-17-yl]benzimidazole-5-carboxamide], the half-maximal inhibitory concentration (IC50) stood at 737 nM.
In the case of `COc1cc(C(=O)N[C@@H]2CNC[C@@H]3C[C@@H]32)cc2nc(-c3cc4ccc5nc4n3CCCCCCC(C)(C)C(=O)N[C@@H]5C)n(C)c12` [Example 202, ~{N}-[(1~{R},5~{S},6~{S})-3-azabicyclo[4.1.0]heptan-5-yl]-7-methoxy-1-methyl-2-[(11~{R})-8,8,11-trimethyl-9-oxo-1,10,19-triazatricyclo[10.5.2.0^{15,18}]nonadeca-12(19),13,15(18),16-tetraen-17-yl]benzimidazole-5-carboxamide], the IC50 is 5130 nM.
Take `COc1cc(C(=O)N[C@H]2CNC[C@H]3C[C@H]32)cc2nc(-c3cc4ccc5nc4n3CCCCCCC(C)(C)C(=O)N[C@@H]5C)n(C)c12` [Example 203, ~{N}-[(1~{S},5~{R},6~{R})-3-azabicyclo[4.1.0]heptan-5-yl]-7-methoxy-1-methyl-2-[(11~{R})-8,8,11-trimethyl-9-oxo-1,10,19-triazatricyclo[10.5.2.0^{15,18}]nonadeca-12(19),13,15(18),16-tetraen-17-yl]benzimidazole-5-carboxamide]: the IC50 came out at 114 nM.
The result for `COc1cc(C(=O)N2CC(N)CC(F)(F)C2)cc2nc(-c3cc4ccc5nc4n3CCCCCCC(C)(C)C(=O)N[C@@H]5C)n(C)c12` (some centres unmarked) [Example 204, (11~{R})-17-[5-(5-amino-3,3-difluoro-piperidine-1-carbonyl)-7-methoxy-1-methyl-benzimidazol-2-yl]-8,8,11-trimethyl-1,10,19-triazatricyclo[10.5.2.0^{15,18}]nonadeca-12(19),13,15(18),16-tetraen-9-one] reads 3350 nM; that for `COc1cc(C(=O)N2C[C@H]3C[C@H]3[C@@H](N)C2)cc2nc(-c3cc4ccc5nc4n3CCCCCCC(C)(C)C(=O)N[C@@H]5C)n(C)c12` [Example 206, (11~{R})-17-[5-[(1~{S},5~{R},6~{R})-5-amino-3-azabicyclo[4.1.0]heptane-3-carbonyl]-7-methoxy-1-methyl-benzimidazol-2-yl]-8,8,11-trimethyl-1,10,19-triazatricyclo[10.5.2.0^{15,18}]nonadeca-12(19),13,15(18),16-tetraen-9-one], 850 nM; that for `COc1cc(C(=O)N2[C@H]3CC[C@@H]2[C@H](N)[C@H](O)C3)cc2nc(-c3cc4ccc5nc4n3CCCCCCC3(CC3)C(=O)N[C@@H]5C)n(C)c12` [Example 207, (11~{R})-17-[5-[(1~{R},2~{S},3~{R},5~{S})-2-amino-3-hydroxy-8-azabicyclo[3.2.1]octane-8-carbonyl]-7-methoxy-1-methyl-benzimidazol-2-yl]-11-methyl-spiro[1,10,19-triazatricyclo[10.5.2.0^{15,18}]nonadeca-12(19),13,15(18),16-tetraene-8,1′-cyclopropane]-9-one], 187 nM.
The result for `COc1cc(C(=O)N2CC[C@H]3OCCN[C@H]3C2)cc2nc(-c3cc4ccc5cc4n3CCCCCCC3(CC3)C(=O)N[C@@H]5C)n(C)c12` [Example 208, (11~{R})-17-[5-[(4~{a}-{S},8~{a}~{R})-2,3,4,4~{a},5,7,8,8~{a}-octahydropyrido[4,3-b][1,4]oxazine-6-carbonyl]-7-methoxy-1-methyl-benzimidazol-2-yl]-11-methyl-spiro[1,10-diazatricyclo[10.5.2.0^{15,18}]nonadeca-12(19),13,15(18),16-tetraene-8,1′-cyclopropane]-9-one] reads 136 nM.
The result for `COc1cc(C(=O)N2[C@H]3CC[C@@H]2[C@H](N)C3)cc2nc(-c3cc4ccc5nc4n3CCCCN(C)C(=O)N[C@@H]5C)c(C)n12` [Example 209, (9˜{R})-15-[7-[(1˜{R},2˜{R},4˜{S})-2-amino-7-azabicyclo[2.2.1]heptane-7-carbonyl]-5-methoxy-3-methyl-imidazo[1,2-a]pyridin-2-yl]-6,9-dimethyl-1,6,8,17-tetrazatricyclo[8.5.2.0^{13,16}]heptadeca-10(17),11,13(16),14-tetraen-7-one] reads 74 nM; that for `COc1cc(C(=O)N2[C@H]3CC[C@@H]2[C@H](N)C3)cc2nc(-c3cc4ccc5nc4n3CCCCCN(C)C(=O)N[C@@H]5C)c(C)n12` [Example 210, (10~{R})-16-[7-[(1~{R},2~{R},4~{S})-2-amino-7-azabicyclo[2.2.1]heptane-7-carbonyl]-5-methoxy-3-methyl-imidazo[1,2-a]pyridin-2-yl]-7,10-dimethyl-1,7,9,18-tetrazatricyclo[9.5.2.0^{14,17}]octadeca-11(18),12,14(17),15-tetraen-8-one], 39 nM; that for `COc1cc(C(=O)N2[C@H]3CC[C@@H]2[C@H](N)C3)cc2nc(-c3cc4ccc5nc4n3CCCCCCCN(C)C(=O)N[C@@H]5C)c(C)n12` [Example 211, (12~{R})-18-[7-[(1~{R},2~{R},4~{S})-2-amino-7-azabicyclo[2.2.1]heptane-7-carbonyl]-5-methoxy-3-methyl-imidazo[1,2-a]pyridin-2-yl]-9,12-dimethyl-1,9,11,20-tetrazatricyclo[11.5.2.0^{16,19}]icosa-13(20),14,16(19),17-tetraen-10-one], 34 nM.
For `COc1cc(C(=O)N2[C@H]3CC[C@@H]2[C@H](N)C3)cc2nc(-c3cc4ccc5nc4n3CCCCCCN(C)C(=O)N[C@@H]5C)c(C)n12` [Example 212, (11~{R})-17-[7-[(1~{R},2~{R},4~{S})-2-amino-7-azabicyclo[2.2.1]heptane-7-carbonyl]-5-methoxy-3-methyl-imidazo[1,2-a]pyridin-2-yl]-8,11-dimethyl-1,8,10,19-tetrazatricyclo[10.5.2.0^{15,18}]nonadeca-12(19),13,15(18),16-tetraen-9-one], the half-inhibitory concentration (IC50) came to 22 nM.
With `COc1cc(C(=O)N2[C@H]3CC[C@@H]2[C@H](N)C3)cc2nc(-c3cc4ccc5nc4n3CCCCCCOc3ccccc3C(=O)N[C@@H]5C)c(C)n12` [Example 213, (2~{R})-19-[7-[(1~{R},2~{R},4~{S})-2-amino-7-azabicyclo[2.2.1]heptane-7-carbonyl]-5-methoxy-3-methyl-imidazo[1,2-a]pyridin-2-yl]-2-methyl-11-oxa-3,18,24-triazatetracyclo[16.5.2.0^{5,10}.0^ {21,25}]pentacosa-1(24),5(10),6,8,19,21(25),22-heptaen-4-one], the half-maximal inhibitory concentration (IC50) amounted to 385 nM.
The figure for `COc1cc(C(=O)N2[C@H]3CC[C@@H]2[C@H](N)C3)cc2nc(-c3cc4ccc5nc4n3C[C@H]3C[C@@H]3COCCC(=O)N[C@@H]5C)c(C3CC3)n12` [Example 214, (3~{S),5~{S},12~{R})-18-[7-[(1~{R},2~{R},4~{S})-2-amino-7-azabicyclo[2.2.1]heptane-7-carbonyl]-3-cyclopropyl-5-methoxy-imidazo[1,2-a]pyridin-2-yl]-12-methyl-7-oxa-1,11,20-triazatetracyclo[11.5.2.0^{3,5}.0^{16,19}] icosa-13(20),14,16(19),17-tetraen-10-one] is 15 nM; for `COc1cc(C(=O)N2[C@H]3CC[C@@H]2[C@H](N)C3)cc2nc(-c3cc4ccc5cc4n3CCCCCCCC(=O)N[C@@H]5C)n(C)c12` [Example 215, (11˜{R})-17-[5-[(1˜{R},2˜{R},4˜{S})-2-amino-7-azabicyclo[2.2.1]heptane-7-carbonyl]-7-methoxy-1-methyl-benzimidazol-2-yl]-11-methyl-1,10-diazatricyclo[10.5.2.0^{15,18}]nonadeca-12(19),13,15(18),16-tetraen-9-one] it is 20 nM; for `COc1cc(C(=O)N2[C@H]3CC[C@@H]2[C@H](N)C3)cc2nc(-c3cc4ccc5cc4n3CCCCCCC(C)(C)C(=O)N[C@@H]5C)n(C)c12` [Example 216, (11˜{R})-17-[5-[(1˜{R},2˜{R},4˜{S})-2-amino-7-azabicyclo[2.2.1]heptane-7-carbonyl]-7-methoxy-1-methyl-benzimidazol-2-yl]-8,8,11-trimethyl-1,10-diazatricyclo[10.5.2.0^{15,18}]nonadeca-12(19),13,15(18),16-tetraen-9-one] it is 33 nM.
The figure for `COc1cc(C(=O)N2[C@H]3CC[C@@H]2[C@H](N)C3)cc2nc(-c3cc4ccc5nc4n3C[C@H]3C[C@@H]3COCCC(=O)N[C@@H]5C)n(C)c12` [Example 217, (3~{S},5~{S},12~{R})-18-[5-[(1~{R},2~{R},4~{S})-2-amino-7-azabicyclo[2.2.1]heptane-7-carbonyl]-7-methoxy-1-methyl-benzimidazol-2-yl]-12-methyl-7-oxa-1,11,20-triazatetracyclo[11.5.2.0^{3,5}.0^{16,19}] icosa-13(20),14,16(19),17-tetraen-10-one] is 32 nM.
The result for `COc1cc(C(=O)N2[C@H]3CC[C@@H]2[C@H](N)C3)cc2nc(-c3cc4ccc5nc4n3C[C@@H]3C[C@H]3COCCC(=O)N[C@@H]5C)n(C)c12` [Example 218, (3~{R},5~{R},12~{R})-18-[5-[(1~{R},2~{R},4~{S})-2-amino-7-azabicyclo[2.2.1]heptane-7-carbonyl]-7-methoxy-1-methyl-benzimidazol-2-yl]-12-methyl-7-oxa-1,11,20-triazatetracyclo[11.5.2.0^{3,5}.0^{16,19}] icosa-13(20),14,16(19),17-tetraen-10-one] reads 29 nM.
